Experimental data from ChEMBL document CHEMBL4814051, “Discovery of effective phosphodiesterase 2 inhibitors with antioxidant activities for the treatment of Alzheimer's disease” (Bioorg Med Chem Lett, 2021).

Columns and labels:
[1] = Antioxidant activity assessed as trolox equivalent of AAPH-induced radical scavenging activity preincubated for 15 mins followed by AAPH addition and measured every minute for 80 mins by ORAC-FL assay; assay type: functional; details: time 95.0 min
[2] = Cytotoxicity against human SH-SY5Y cells assessed as cell viability at 50 uM incubated for 48 hrs by CCK-8 method; assay type: cell-based; details: read-out: Activity
[3] = Cytotoxicity against human SH-SY5Y cells assessed as cell viability at 100 uM incubated for 48 hrs by CCK-8 method; assay type: cell-based; details: read-out: Activity

Row | SMILES | Activity (Trolox equivalents) [1] | viability at 48 h, 50 µM [2] [%] | viability at 48 h, 100 µM [3] [%]
1 | Cc1nc2ccc(NCc3ccccc3O)cc2n2c(-c3ccccc3Cl)nnc12 | 3.7 | – | –
2 | Cc1nc2ccc(NCc3ccc(F)cc3)cc2n2c(-c3ccccc3Cl)nnc12 | 0.2 | – | –
3 | Cc1nc2ccc(NCc3cc(F)ccc3O)cc2n2c(-c3ccccc3Cl)nnc12 | 8.1 | – | –
4 | COc1ccc2[nH]cc(CCNC(C)=O)c2c1 | 2 | – | –
5 | Cc1nc2ccc(NCc3c(O)cccc3F)cc2n2c(-c3ccccc3Cl)nnc12 | 8.6 | 23 | 10
6 | Cc1nc2ccc(NCc3cc(Br)ccc3O)cc2n2c(-c3ccccc3Cl)nnc12 | 2.6 | – | –
7 | COc1ccc(O)c(CNc2ccc3nc(C)c4nnc(-c5ccccc5Cl)n4c3c2)c1 | 8 | – | –
8 | Cc1nc2ccc(NCc3cc(Cl)ccc3O)cc2n2c(-c3ccccc3Cl)nnc12 | 3.9 | – | –
9 | Cc1nc2ccc(NCc3ccc(Cl)cn3)cc2n2c(-c3ccccc3Cl)nnc12 | 1.9 | – | –
10 | Cc1nc2ccc(NCc3ccc(F)cc3O)cc2n2c(-c3ccccc3Cl)nnc12 | 8.4 | 53 | 39
11 | Cc1nc2ccc(NCc3ccccc3F)cc2n2c(-c3ccccc3Cl)nnc12 | 0.6 | – | –
12 | Cc1nc2ccc(NCc3cc(OC(F)(F)F)ccc3O)cc2n2c(-c3ccccc3Cl)nnc12 | 5.2 | – | –
13 | Cc1nc2ccc(/N=C/c3ccccc3O)cc2n2c(-c3ccccc3Cl)nnc12 | 0.3 | – | –
14 | Cc1nc2ccc(NCc3cc(Cl)cc(Cl)c3O)cc2n2c(-c3ccccc3Cl)nnc12 | 6.8 | – | –
15 | Cc1nc2ccc(NCc3ccc(Cl)cc3O)cc2n2c(-c3ccccc3Cl)nnc12 | 6.9 | – | –
16 | Cc1nc2ccc(NCc3ccccn3)cc2n2c(-c3ccccc3Cl)nnc12 | 5.5 | – | –
17 | Cc1nc2ccc(/N=C/c3ccc(F)cc3O)cc2n2c(-c3ccccc3Cl)nnc12 | 0.2 | – | –
